Experimental findings from patent US20040072825A1, “2-(2-(4-((2r)-2-methyl-3-(10h-phenothiazin-10-yl)propyl)-1-piperazinyl)-ethoxy) ethanol, process for the preparation thereof, pharmaceutical compositions containing said compound and therapeutic uses thereof” (priority 2000, published 2004) are described below.

The target in assay [1] is T1, human D3 dopaminergic receptor (Homo sapiens, UniProt P35462).
T1 construct: expressed in transfected cells; host or cells: CHO
Briefly: Radioligand binding, human D3 receptor (CHO cell culture). Here is the method:
The test substances, biological materials and experimental protocols used in the study are described in Moguilevsky N. et al. (1994) Eur. J. […] List S. J. (1981) Proc. Natl. Acad. Sci.78:2620-2624; MacKenzie R. G. et al. (1994) Eur. J. Pharmacol. 266:79-85; Van Tol et al., (1992) Nature, 358:149-152. […] Filtermat A, Walac), then washed with cold buffer using a filtration unit ‘Cell Harvester’ (Brandel, Packard or Tomtec). The bound radioactivity is measured using a scintillation liquid (Formula 989 or Microscint 0, Packard) or solid (Meltilex B/HS, Wallac), and a scintillation counter (LS 6000, Beckman; Topcount, Packard; Betaplate, Wallac). […] Each experiment was performed in duplicate (n=2). In parallel, a positive control (concentration of reference substance causing 50% inhibition of radioligand specific binding) is tested to validate the assay. For competition experiments, membranes are incubated in the buffer containing the radioligand and increasing concentrations of unlabeled test substances. Each binding assay is validated with a reference compound tested in parallel. […] where BO and BI represent the total binding in the absence and presence of the unlabelled drug (in dpm/assay) and NSB is the amount of non specific binding (in dpm/assay). Analysis of raw data and pIC50 calculation is performed by computerized non-linear curve fitting methods using a set of equations describing competitive interactions between labelled and unlabeled ligands which obey the law of mass action. IC50 represents the concentration of the test substance inhibiting 50% of the specific binding of the radioligand. It is determined in competitive binding experiments by measuring the binding of a single concentration of a radioactive ligand at equilibrium with various concentrations of the unlabeled test substance. pIC50=−log IC50

For a further assay, the target named is T2, 5-HT3 receptor (Homo sapiens, UniProt P46098).
T2 sequence (P46098 24-478): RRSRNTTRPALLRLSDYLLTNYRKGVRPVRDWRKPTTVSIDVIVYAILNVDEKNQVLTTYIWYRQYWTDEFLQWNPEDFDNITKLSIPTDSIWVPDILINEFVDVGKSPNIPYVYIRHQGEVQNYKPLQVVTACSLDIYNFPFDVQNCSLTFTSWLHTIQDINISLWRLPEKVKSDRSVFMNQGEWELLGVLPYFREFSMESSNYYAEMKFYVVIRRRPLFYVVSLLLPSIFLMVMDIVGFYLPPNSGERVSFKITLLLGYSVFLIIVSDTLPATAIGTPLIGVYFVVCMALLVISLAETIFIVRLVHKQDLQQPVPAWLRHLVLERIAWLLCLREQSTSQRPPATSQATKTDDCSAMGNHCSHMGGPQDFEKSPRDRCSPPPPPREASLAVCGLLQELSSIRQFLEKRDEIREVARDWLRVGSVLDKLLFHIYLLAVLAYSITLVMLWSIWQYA
Briefly: Radioligand binding, 5-HT3 receptor. Conditions: mean of duplicate, read-out: percent inhibition of control specific binding.

Structures are written as SMILES.

T1 sequence (P35462 whole entry): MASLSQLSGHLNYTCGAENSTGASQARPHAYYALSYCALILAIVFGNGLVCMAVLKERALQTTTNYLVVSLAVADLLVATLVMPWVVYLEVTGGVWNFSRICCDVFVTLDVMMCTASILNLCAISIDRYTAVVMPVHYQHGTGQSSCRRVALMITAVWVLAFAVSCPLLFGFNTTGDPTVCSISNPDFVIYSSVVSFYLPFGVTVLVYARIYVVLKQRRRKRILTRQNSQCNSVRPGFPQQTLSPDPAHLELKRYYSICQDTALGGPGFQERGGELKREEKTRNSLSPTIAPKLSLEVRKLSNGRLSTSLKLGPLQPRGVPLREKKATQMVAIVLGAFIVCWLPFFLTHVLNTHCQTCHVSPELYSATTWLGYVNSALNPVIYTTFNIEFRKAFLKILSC

As usually defined, the inhibition is the percentage by which the read-out fell short of the control. Broadly, the IC50 is the point on the concentration scale where inhibition reaches its midpoint. Regarding `CC(CN1CCN(CCOCCO)CC1)CN1c2ccccc2Sc2ccccc21` (racemic) [Dixyrazine, 2-(2-(4-(2-methyl-3-(10H-phenothiazin-10-yl)propyl)-1-piperazinyl)ethoxy)ethanol, reference compound], the inhibition at 0.1 µM in assay [1] (D3, 0.1 μM, mean of duplicate, read-out: percent inhibition of control specific binding) is 84%; at 5-HT3 receptor (5-HT3, 0.1 μM) it was less than 10%. The “percent inhibition of control specific binding” value in assay [1] (D3, 10 μM, mean of duplicate, 10 µM) is reported as 100%. In addition, the inhibition at 10 µM was more than 90% in assay [1] (D3, 10 μM, mean of duplicate, read-out: percent inhibition of control specific binding) and 26% at 5-HT3 receptor (5-HT3, 10 μM). In assay [1] (D3, competitive binding, read-out: Affinity pIC50 (-log IC50) (converted)), the IC50 is 50.1 nM.
